# According to patent publication US10538555B2, “Macrocyclic inhibitors of the PD-1/PD-L1 and CD80(B7-1)/PD-L1 protein/protein interactions” (BRISTOL-MYERS SQUIBB COMPANY, priority 2014, dated 2020):
# Where a SMILES comes first, the peptide text is derived from it. Bridges are numbered along the chain shown (N, C = ends). [ ]: non-standard residue; d: D form. Phe(3,4-F2) = N[C@@H](Cc1ccc(F)c(F)c1)C(=O)O; dPro(4S-Me) = C[C@@H]1CN[C@@H](C(=O)O)C1; Phe(4-F) = N[C@@H](Cc1ccc(F)cc1)C(=O)O; NMeF = CN[C@@H](Cc1ccccc1)C(=O)O; dNMeF = CN[C@H](Cc1ccccc1)C(=O)O; dHyp = O=C(O)[C@H]1C[C@H](O)CN1; NMehSer = CN[C@@H](CCO)C(=O)O; NMeNle = CCCC[C@H](NC)C(=O)O; NMeV = CN[C@H](C(=O)O)C(C)C; Orn = NCCC[C@H](N)C(=O)O
# Molecular target: T1, Human PD-L1/PD-1 (Homo sapiens, UniProt Q9NZQ7)
# T1 construct: TVMV protease cleavage site (C); made in house; host or cells: HEK293T cells
# Test: HTRF Human PD-L1/PD-1 binding assay (PD-1-Ig/PD-L1-His)
# Conditions: PD-L1-His 10 nM, PD-1-Ig 20 nM; class symbol; read-out: HTRF Human PD-L1/PD-1 Binding Assay IC50 Range
# Outline: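 Truncated Fc-fused human PD-1 (aa 25-167) at 20 nM and His-tagged PD-L1 (aa 18-239) at 10 nM final are used, with peptides preincubated 15 min with PD-L1. Detection uses europium-cryptate anti-Ig and APC anti-His antibodies; 665/620 nm ratio.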
# T1 sequence (Q9NZQ7 with tags, fused parts or gaps): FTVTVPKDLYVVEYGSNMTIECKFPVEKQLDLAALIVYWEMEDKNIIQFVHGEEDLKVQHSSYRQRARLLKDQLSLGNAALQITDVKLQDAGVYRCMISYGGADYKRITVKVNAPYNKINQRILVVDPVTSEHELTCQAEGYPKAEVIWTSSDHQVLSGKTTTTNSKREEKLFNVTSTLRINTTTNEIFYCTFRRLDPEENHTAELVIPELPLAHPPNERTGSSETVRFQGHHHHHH
row,IC50 [nM],SMILES
1,10 to 99.9,"CCCC[C@H]1C(=O)N2C[C@@H](O)C[C@@H]2C(=O)N[C@@H](CC(=O)O)C(=O)N[C@@H](C(C)C)C(=O)N(C)[C@H](Cc2ccccc2)C(=O)N[C@@H](Cc2ccc(O)cc2)C(=O)N2C[C@@H](O)C[C@@H]2C(=O)N[C@@H](Cc2c[nH]c3ccccc23)C(=O)N[C@@H](Cc2ccc(O)cc2)C(=O)N[C@@H](CC(C)C)C(=O)N[C@H](C(=O)NCC(N)=O)CSCC(=O)N[C@@H](Cc2ccc(F)c(F)c2)C(=O)N(C)[C@@H](Cc2ccccc2)C(=O)N1C [Example 9228] ({CH2CO}-[Phe(3,4-F2)][NMeF][NMeNle][dHyp]DV[dNMeF]Y[dHyp]WYLCG-NH2; thioether N-13)"
2,1 to 9.9,"CCCC[C@H]1C(=O)N2C[C@@H](C)C[C@@H]2C(=O)N[C@@H](CC(=O)O)C(=O)N[C@@H](C(C)C)C(=O)N(C)[C@@H](Cc2ccccc2)C(=O)N[C@@H](Cc2ccc(OC)cc2)C(=O)N2C[C@@H](O)C[C@@H]2C(=O)N[C@@H](Cc2c[nH]c3ccccc23)C(=O)N[C@@H](Cc2ccc(O)cc2)C(=O)N[C@@H](CCCN)C(=O)N[C@H](C(=O)NCC(N)=O)CSCC(=O)N[C@@H](Cc2ccc(F)c(F)c2)C(=O)N(C)[C@@H](Cc2ccccc2)C(=O)N1C [Example 9229] ({CH2CO}-[Phe(3,4-F2)][NMeF][NMeNle][dPro(4S-Me)]DV[NMeF]Y(Me)[dHyp]WY[Orn]CG-NH2; thioether N-13)"
3,10 to 99.9,"CCCC[C@H]1C(=O)N2C[C@@H](C)C[C@@H]2C(=O)N[C@@H](CC(=O)O)C(=O)N[C@@H](C(C)C)C(=O)N(C)[C@H](Cc2ccccc2)C(=O)N[C@@H](Cc2ccc(OC)cc2)C(=O)N2C[C@@H](O)C[C@@H]2C(=O)N[C@@H](Cc2c[nH]c3ccccc23)C(=O)N[C@@H](Cc2ccc(O)cc2)C(=O)N[C@@H](CCCN)C(=O)N[C@H](C(=O)NCC(N)=O)CSCC(=O)N[C@@H](Cc2ccc(F)c(F)c2)C(=O)N(C)[C@@H](Cc2ccccc2)C(=O)N1C [Example 9230] ({CH2CO}-[Phe(3,4-F2)][NMeF][NMeNle][dPro(4S-Me)]DV[dNMeF]Y(Me)[dHyp]WY[Orn]CG-NH2; thioether N-13)"
4,1 to 9.9,"CCCC[C@H]1C(=O)N2C[C@@H](O)C[C@@H]2C(=O)N[C@@H](CC(=O)O)C(=O)N[C@@H](C(C)C)C(=O)N(C)[C@@H](Cc2ccccc2)C(=O)N[C@@H](Cc2ccc(O)cc2)C(=O)N2C[C@@H](O)C[C@@H]2C(=O)N[C@@H](Cc2c[nH]c3ccccc23)C(=O)N[C@@H](Cc2ccc(O)cc2)C(=O)N[C@@H](CCCN)C(=O)N[C@H](C(=O)NCC(N)=O)CSCC(=O)N[C@@H](Cc2ccc(F)c(F)c2)C(=O)N(C)[C@@H](Cc2ccccc2)C(=O)N1C [Example 9231] ({CH2CO}-[Phe(3,4-F2)][NMeF][NMeNle][dHyp]DV[NMeF]Y[dHyp]WY[Orn]CG-NH2; thioether N-13)"
5,1 to 9.9,"CCCC[C@H]1C(=O)N2C[C@@H](O)C[C@@H]2C(=O)N[C@@H](CC(=O)O)C(=O)N[C@@H](C(C)C)C(=O)N(C)[C@H](Cc2ccccc2)C(=O)N[C@@H](Cc2ccc(O)cc2)C(=O)N2C[C@@H](O)C[C@@H]2C(=O)N[C@@H](Cc2c[nH]c3ccccc23)C(=O)N[C@@H](Cc2ccc(O)cc2)C(=O)N[C@@H](CCCN)C(=O)N[C@H](C(=O)NCC(N)=O)CSCC(=O)N[C@@H](Cc2ccc(F)c(F)c2)C(=O)N(C)[C@@H](Cc2ccccc2)C(=O)N1C [Example 9232] ({CH2CO}-[Phe(3,4-F2)][NMeF][NMeNle][dHyp]DV[dNMeF]Y[dHyp]WY[Orn]CG-NH2; thioether N-13)"
6,1 to 9.9,"COCC[C@H]1C(=O)N2C[C@@H](O)C[C@@H]2C(=O)N[C@@H](CC(=O)O)C(=O)N[C@@H](C(C)C)C(=O)N(C)[C@@H](Cc2ccccc2)C(=O)N[C@@H](Cc2ccc(O)cc2)C(=O)N2C[C@@H](O)C[C@@H]2C(=O)N[C@@H](Cc2c[nH]c3ccccc23)C(=O)N[C@@H](Cc2ccc(O)cc2)C(=O)N[C@@H](CC(C)C)C(=O)N[C@H](C(=O)NCC(N)=O)CSCC(=O)N[C@@H](Cc2ccc(F)c(F)c2)C(=O)N(C)[C@@H](Cc2ccccc2)C(=O)N1C [Example 9233] ({CH2CO}-[Phe(3,4-F2)][NMeF][NMehSer](Me)[dHyp]DV[NMeF]Y[dHyp]WYLCG-NH2; thioether N-13)"
7,1 to 9.9,"COCC[C@H]1C(=O)N2C[C@@H](O)C[C@@H]2C(=O)N[C@@H](CC(=O)O)C(=O)N[C@@H](C(C)C)C(=O)N(C)[C@H](Cc2ccccc2)C(=O)N[C@@H](Cc2ccc(O)cc2)C(=O)N2C[C@@H](O)C[C@@H]2C(=O)N[C@@H](Cc2c[nH]c3ccccc23)C(=O)N[C@@H](Cc2ccc(O)cc2)C(=O)N[C@@H](CC(C)C)C(=O)N[C@H](C(=O)NCC(N)=O)CSCC(=O)N[C@@H](Cc2ccc(F)c(F)c2)C(=O)N(C)[C@@H](Cc2ccccc2)C(=O)N1C [Example 9234] ({CH2CO}-[Phe(3,4-F2)][NMeF][NMehSer](Me)[dHyp]DV[dNMeF]Y[dHyp]WYLCG-NH2; thioether N-13)"
8,1 to 9.9,"COCC[C@H]1C(=O)N2C[C@@H](O)C[C@@H]2C(=O)N[C@@H](CC(=O)O)C(=O)N[C@@H](C(C)C)C(=O)N(C)[C@@H](Cc2ccccc2)C(=O)N[C@@H](Cc2ccc(OC)cc2)C(=O)N2C[C@@H](O)C[C@@H]2C(=O)N[C@@H](Cc2c[nH]c3ccccc23)C(=O)N[C@@H](Cc2ccc(O)cc2)C(=O)N[C@@H](CC(C)C)C(=O)N[C@H](C(=O)NCC(N)=O)CSCC(=O)N[C@@H](Cc2ccc(F)c(F)c2)C(=O)N(C)[C@@H](Cc2ccccc2)C(=O)N1C [Example 9235] ({CH2CO}-[Phe(3,4-F2)][NMeF][NMehSer](Me)[dHyp]DV[NMeF]Y(Me)[dHyp]WYLCG-NH2; thioether N-13)"
9,1 to 9.9,"COCC[C@H]1C(=O)N2C[C@@H](O)C[C@@H]2C(=O)N[C@@H](CC(=O)O)C(=O)N[C@@H](C(C)C)C(=O)N(C)[C@H](Cc2ccccc2)C(=O)N[C@@H](Cc2ccc(OC)cc2)C(=O)N2C[C@@H](O)C[C@@H]2C(=O)N[C@@H](Cc2c[nH]c3ccccc23)C(=O)N[C@@H](Cc2ccc(O)cc2)C(=O)N[C@@H](CC(C)C)C(=O)N[C@H](C(=O)NCC(N)=O)CSCC(=O)N[C@@H](Cc2ccc(F)c(F)c2)C(=O)N(C)[C@@H](Cc2ccccc2)C(=O)N1C [Example 9236] ({CH2CO}-[Phe(3,4-F2)][NMeF][NMehSer](Me)[dHyp]DV[dNMeF]Y(Me)[dHyp]WYLCG-NH2; thioether N-13)"
10,1 to 9.9,"COCC[C@H]1C(=O)N2C[C@@H](O)C[C@@H]2C(=O)N[C@@H](CC(=O)O)C(=O)N[C@@H](C(C)C)C(=O)N(C)[C@@H](Cc2ccccc2)C(=O)N[C@@H](Cc2ccc(O)cc2)C(=O)N2C[C@@H](O)C[C@@H]2C(=O)N[C@@H](Cc2c[nH]c3ccccc23)C(=O)N[C@@H](Cc2ccc(O)cc2)C(=O)N[C@@H](CCCN)C(=O)N[C@H](C(=O)NCC(N)=O)CSCC(=O)N[C@@H](Cc2ccc(F)c(F)c2)C(=O)N(C)[C@@H](Cc2ccccc2)C(=O)N1C [Example 9237] ({CH2CO}-[Phe(3,4-F2)][NMeF][NMehSer](Me)[dHyp]DV[NMeF]Y[dHyp]WY[Orn]CG-NH2; thioether N-13)"
11,1 to 9.9,"COCC[C@H]1C(=O)N2C[C@@H](O)C[C@@H]2C(=O)N[C@@H](CC(=O)O)C(=O)N[C@@H](C(C)C)C(=O)N(C)[C@H](Cc2ccccc2)C(=O)N[C@@H](Cc2ccc(O)cc2)C(=O)N2C[C@@H](O)C[C@@H]2C(=O)N[C@@H](Cc2c[nH]c3ccccc23)C(=O)N[C@@H](Cc2ccc(O)cc2)C(=O)N[C@@H](CCCN)C(=O)N[C@H](C(=O)NCC(N)=O)CSCC(=O)N[C@@H](Cc2ccc(F)c(F)c2)C(=O)N(C)[C@@H](Cc2ccccc2)C(=O)N1C [Example 9238] ({CH2CO}-[Phe(3,4-F2)][NMeF][NMehSer](Me)[dHyp]DV[dNMeF]Y[dHyp]WY[Orn]CG-NH2; thioether N-13)"
12,1 to 9.9,"COCC[C@H]1C(=O)N2C[C@@H](O)C[C@@H]2C(=O)N[C@@H](CC(=O)O)C(=O)N[C@@H](C(C)C)C(=O)N(C)[C@H](Cc2ccccc2)C(=O)N[C@@H](Cc2ccc(OC)cc2)C(=O)N2C[C@@H](O)C[C@@H]2C(=O)N[C@@H](Cc2c[nH]c3ccccc23)C(=O)N[C@@H](Cc2ccc(O)cc2)C(=O)N[C@@H](CCCN)C(=O)N[C@H](C(=O)NCC(N)=O)CSCC(=O)N[C@@H](Cc2ccc(F)c(F)c2)C(=O)N(C)[C@@H](Cc2ccccc2)C(=O)N1C [Example 9240] ({CH2CO}-[Phe(3,4-F2)][NMeF][NMehSer](Me)[dHyp]DV[dNMeF]Y(Me)[dHyp]WY[Orn]CG-NH2; thioether N-13)"
13,1000 to 10000,CCCC[C@H]1C(=O)N2CCC[C@@H]2C(=O)N[C@@H](CC(=O)O)C(=O)N[C@@H](C(C)C)C(=O)N(C)[C@@H](C(C)C)C(=O)N[C@@H](Cc2ccc(O)cc2)C(=O)N2CCC[C@@H]2C(=O)N[C@@H](Cc2c[nH]c3ccccc23)C(=O)N[C@@H](Cc2ccc(O)cc2)C(=O)N[C@@H](CC(C)C)C(=O)N[C@H](C(=O)NCC(N)=O)CSCC(=O)N[C@@H](Cc2ccc(F)cc2)C(=O)N(C)[C@@H](Cc2ccccc2)C(=O)N1C [Example 9241] ({CH2CO}-[Phe(4-F)][NMeF][NMeNle][dP]DV[NMeV]Y[dP]WYLCG-NH2; thioether N-13)

# Same assay, conditions: PD-L1-His 10 nM, PD-1-Ig 20 nM; read-out: HTRF Human PD-L1/PD-1 Binding Assay IC50
row,IC50 [nM],SMILES
1,3.8,"COCC[C@H]1C(=O)N2C[C@@H](O)C[C@@H]2C(=O)N[C@@H](CC(=O)O)C(=O)N[C@@H](C(C)C)C(=O)N(C)[C@@H](Cc2ccccc2)C(=O)N[C@@H](Cc2ccc(OC)cc2)C(=O)N2C[C@@H](O)C[C@@H]2C(=O)N[C@@H](Cc2c[nH]c3ccccc23)C(=O)N[C@@H](Cc2ccc(O)cc2)C(=O)N[C@@H](CCCN)C(=O)N[C@H](C(=O)NCC(N)=O)CSCC(=O)N[C@@H](Cc2ccc(F)c(F)c2)C(=O)N(C)[C@@H](Cc2ccccc2)C(=O)N1C [Example 9239] ({CH2CO}-[Phe(3,4-F2)][NMeF][NMehSer](Me)[dHyp]DV[NMeF]Y(Me)[dHyp]WY[Orn]CG-NH2; thioether N-13)"
